Experiments:
Type in all cases: cell-based, human
[1] = test system: prostate-specific antigen (PSA) mRNA; experiment: Time-course PSA expression in C4-2B cells
Description: C4-2B cells were plated at 1,000 cells per well in complete medium. […] ISIS 549148 was included as a negative control. […] After a treatment period of 8 hours, 24 hours, and 48 hours, AR expression was measured with primer probe set hAR-LTS00943. Results are presented in Tables 70-72 as percent expression of AR, relative to non-treated cells.
Expression analysis of prostate-specific antigen (PSA) and TMPRSS2 were also analyzed. Results are presented in Tables 73-75 as percent inhibition of PSA expression and Tables 76-78 as percent inhibition of TMPRSS2 expression, relative to non-treated cells.

LNCaP cells = experiment: LNCaP cell proliferation (complete or CSS+DHT medium); details: 5 days; for Proliferation (% untreated control) in LNCaP cells cultured in CSS + DHT medium: CSS + 1 nM DHT medium
Description: (§1) After a treatment period of 5 days in complete medium or CSS+1 nM DHT medium, the proliferative capacity of the cancer cells was measured with using CellTiter 96® AQueous One Solution or CellTiter-Glo® solution Cell Proliferation kit (Promega), following the manufacturer's instructions. […] Treatment with ISIS oligonucleotides in CSS+DHT medium reduced the proliferative capacity to a greater extent than treatment with MVD-3100. The proliferative capacity of cells cultured in CSS medium without DHT is 17% of untreated control levels.

PSA mRNA = experiment: PSA expression in C4-2B cells (Example 30); details: 48 hrs
Description: Cells were plated at 1,000 cells per well. […] ISIS 549148 was included as a negative control. […] After an incubation period of 48 hrs, RNA levels of AR, PSA and TMPRSS2 were measured.
Cells were plated at 2,000 cells per well and cultured in CSS media with 1 nM DHT. […] ISIS 549148 was included as a negative control. […] After an incubation period of 48 hrs, RNA levels of AR, PSA and TMPRSS2 were measured. In the absence of DHT, AR expression in C4-2 cells was 188%, PSA expression was 43% and TMPRSS2 expression was 27% compared to the untreated control.

full length AR mRNA [2] = experiment: Full-length AR RNA in VCaP cells (complete, CSS+DHT medium); details: RNAiMax, 48 hrs
Description: Cells were plated at 10,000 cells per well. […] After an incubation period of 48 hrs, RNA levels of full length AR, the V7 variant, PSA and TMPRSS2 were measured.
After an incubation period of 48 hrs, RNA levels of full length AR, the V7 variant, PSA and TMPRSS2 were measured. The data is presented in Tables 108 expressed as percent expression of gene levels compared to the untreated control.
Cells were plated at 15,000 cells per well and cultured in CSS media for 16 hours. […] After 4 hrs, 1 nM DHT was added. […] After an incubation period of 48 hrs, RNA levels of AR, PSA and TMPRSS2 were measured.

VCaP cells = experiment: VCaP cell proliferation; details: 5 days; for Proliferation (% untreated control): VCaP cells
Description: as §1, with “One” for “One Solution”, “Solution” for “solution”, “12%” for “17%”

full length AR mRNA [3] = experiment: Full-length AR RNA in 22RV1 cells (complete, CSS+DHT medium); details: RNAiMax, 48 hrs
Description: Cells were plated at 1,000 cells per well. […] After an incubation period of 48 hrs, RNA levels of full length AR, the V7 variant, PSA and TMPRSS2 were measured.
After an incubation period of 48 hrs, RNA levels of full length AR, the V7 variant, PSA and TMPRSS2 were measured.
Cells were plated at 2,000 cells per well and cultured in CSS media for 16 hours. […] After 4 hrs, 1 nM DHT was added. […] After an incubation period of 48 hrs, RNA levels of AR, AR V7 variant, PSA and TMPRSS2 were measured.

[4] = complete medium or CSS+1 nM DHT

TTGATTTAATGGTTGC [ISIS 560131] (MOE and (S)-cEt gapmer chemistry, further chemistry not given here) [targets intron 1]
Percent inhibition of PSA expression compared to the control group in 8 hours ([1]; 0.04 μM): 12%
Percent inhibition of PSA expression compared to the control group in 24 hours ([1]; 0.04 μM): 27%
Percent inhibition of PSA expression compared to the control group in 48 hours ([1]; 0.04 μM): 20%
Percent inhibition of PSA expression compared to the control group in 8 hours ([1]; 0.2 μM): 0%
Percent inhibition of PSA expression compared to the control group in 24 hours ([1]; 0.2 μM): 46%
Percent inhibition of PSA expression compared to the control group in 48 hours ([1]; 0.2 μM): 61%
Percent inhibition of PSA expression compared to the control group in 8 hours ([1]; 1 μM): 3%
Percent inhibition of PSA expression compared to the control group in 24 hours ([1]; 1 μM): 56%
Percent inhibition of PSA expression compared to the control group in 48 hours ([1]; 1 μM): 71%
Percent inhibition of PSA expression compared to the control group in 8 hours ([1]; 5.0 μM): 1%
Percent inhibition of PSA expression compared to the control group in 24 hours ([1]; 5.0 μM): 60%
Percent inhibition of PSA expression compared to the control group in 48 hours ([1]; 5.0 μM): 80%
PSA expression ([1]; time course): reduced PSA and TMPRSS2 expression in the cells relative to the control set at the 24 hr and 48 hr time points
Proliferation (% untreated control) in LNCaP cells cultured in CSS + DHT medium (LNCaP cells; 0.04 μM): 97 % untreated control
Proliferation (% untreated control) in LNCaP cells cultured in CSS + DHT medium (LNCaP cells; 0.2 μM): 81 % untreated control
Proliferation (% untreated control) in LNCaP cells cultured in CSS + DHT medium (LNCaP cells; 1 μM): 46 % untreated control
Proliferation (% untreated control) in LNCaP cells cultured in CSS + DHT medium (LNCaP cells; 5.0 μM): 8 % untreated control
proliferation of LNCaP cells (LNCaP cells; [4]): reduced proliferation of the cells in a dose dependent compared to the control
Proliferation (% untreated control) in LNCaP cells cultured in complete medium (LNCaP cells; 0.04 μM): 96 % untreated control
Proliferation (% untreated control) in LNCaP cells cultured in complete medium (LNCaP cells; 0.2 μM): 70 % untreated control
Proliferation (% untreated control) in LNCaP cells cultured in complete medium (LNCaP cells; 1 μM): 48 % untreated control
Proliferation (% untreated control) in LNCaP cells cultured in complete medium (LNCaP cells; 5.0 μM): 45 % untreated control
Percent inhibition of PSA expression (PSA mRNA; CSS + DHT medium, 0.04 μM): 0%
Percent inhibition of PSA expression (PSA mRNA; CSS + DHT medium, 0.2 μM): 17%
Percent inhibition of PSA expression (PSA mRNA; CSS + DHT medium, 1 μM): 50%
Percent inhibition of PSA expression (PSA mRNA; CSS + DHT medium, 5.0 μM): 61%
Percent inhibition of PSA expression (PSA mRNA; complete medium, 0.04 μM): 56%
Percent inhibition of PSA expression (PSA mRNA; complete medium, 0.2 μM): 84%
Percent inhibition of PSA expression (PSA mRNA; complete medium, 1 μM): 89%
Percent inhibition of PSA expression (PSA mRNA; complete medium, 5.0 μM): 92%
Percent inhibition of full-length AR (full length AR mRNA [2]; CSS medium, 1.34 nM): 12%
Percent inhibition of full-length AR (full length AR mRNA [2]; CSS medium, 4.0 nM): 16%
Percent inhibition of full-length AR (full length AR mRNA [2]; CSS medium, 13.4 nM): 37%
Percent inhibition of full-length AR (full length AR mRNA [2]; CSS medium, 40 nM): 38%
Percent inhibition of full-length AR (full length AR mRNA [2]; complete medium, 1.34 nM): 0%
Percent inhibition of full-length AR (full length AR mRNA [2]; complete medium, 4.0 nM): 59%
Percent inhibition of full-length AR (full length AR mRNA [2]; complete medium, 13.4 nM): 77%
Percent inhibition of full-length AR (full length AR mRNA [2]; complete medium, 40 nM): 84%
Proliferation (% untreated control) (VCaP cells; CSS + DHT medium, 1.34 nM): 95 % untreated control
Proliferation (% untreated control) (VCaP cells; CSS + DHT medium, 4.0 nM): 65 % untreated control
Proliferation (% untreated control) (VCaP cells; CSS + DHT medium, 13.4 nM): 42 % untreated control
Proliferation (% untreated control) (VCaP cells; CSS + DHT medium, 40 nM): 37 % untreated control
Proliferation (% untreated control) (VCaP cells; complete medium, 1.34 nM): 98 % untreated control
Proliferation (% untreated control) (VCaP cells; complete medium, 4.0 nM): 66 % untreated control
Proliferation (% untreated control) (VCaP cells; complete medium, 13.4 nM): 53 % untreated control
Proliferation (% untreated control) (VCaP cells; complete medium, 40 nM): 48 % untreated control
proliferation of VCaP cells (VCaP cells; [4]): reduced proliferation of the cells in a dose dependent compared to the control
Percent inhibition of full-length AR (full length AR mRNA [3]; CSS + DHT medium, 1.34 nM): 65%
Percent inhibition of full-length AR (full length AR mRNA [3]; CSS + DHT medium, 4.0 nM): 85%
Percent inhibition of full-length AR (full length AR mRNA [3]; CSS + DHT medium, 13.4 nM): 93%
Percent inhibition of full-length AR (full length AR mRNA [3]; complete medium, 1.34 nM): 7%
Percent inhibition of full-length AR (full length AR mRNA [3]; complete medium, 4.0 nM): 19%
Percent inhibition of full-length AR (full length AR mRNA [3]; complete medium, 13.4 nM): 49%
Percent inhibition of full-length AR (full length AR mRNA [3]; complete medium, 40 nM): 76%
